Assay results published in patent US20050031597A1, “Cells and improved method for preserving cells” (priority 2003, published 2005).
Like-named read-outs stand apart in the source and are kept apart here.

Key:
erythrocytic cells [1] = test: ATP level of erythrocytic cells; assay type: cell-based
Text: (§1) Levels of ATP and DPG may be measured or assayed in biological samples (e.g., in cells) by any suitable means or procedure. By way of example only, levels of ATP and DPG may be measured or assayed in biological samples (e.g., in cells) by using Sigma Diagnostic (Sigma Aldrich Chemicals, St. Louis, Mo.) assay kits (cat. # for ATP assay 366 and 366-A, and for 2,3-DPG assay 35-A) designed for determination of ATP and 2,3-DPG in biological samples (e.g., red blood cells). By further way of example only, biological samples (e.g., cells) may be lysed using 12% and 8% trichloracetic acid for ATP and 2,3-DPG determination, respectively. ATP may be quantified enzymatically by catalyzing ATP to ADP in the presence of 3-phosphoglycerate (3-PGA) using phosphoglycerate phosphokinase (PGK) and the resulting 1,3-diphosphoglycerate induced oxidation of NADH to NAD using glyceraldehyde phosphate dehydrogenase (GAPD) present in the assay media. The level of NADH may be monitored spectrophotometrically at 340 nm which corresponds directly with the ATP level. 2,3-DPG may be hydrolyzed by 2,3-DPG phosphatase to 3-PGA and inorganic phosphorus in the presence of 2-phosphoglycolic acid as a stimulator. 3-PGA reacts with ATP in the presence of PGK and the subsequent steps follow the above protocol used for ATP quantification. […]

human platelets = test: Loading of platelets with trehalose (anthrone reaction); assay type: cell-based; conditions: for trehalose uptake: 37° C.; for loading efficiency of trehalose: 4 hour incubation, 50 mM external trehalose
Protocol: Washing of Platelets. Platelet concentrations were obtained from the Sacramento blood center or from volunteers in our laboratory. Platelet rich plasma was centrifuged for 8 minutes at 320×g to remove erythrocytes and leukocytes. The supernatant was pelleted and washed two times (480×g for 22 minutes, 480×g for 15 minutes) in buffer A (100 MM NaCl, 10 MM KCl, 10 mM EGTA, 10 mM imidazole, pH 6.8). Platelet counts were obtained on a Coulter counter T890 (Coulter, Inc., Miami, Fla.).
Loading of Platelets with Trehalose. Washed platelets in a concentration of 1-2 10^9 platelets/ml were incubated at various temperatures in the presence of 1-20 mg/ml trehalose. Incubation temperatures were chosen from 4° C. to 37° C. Incubation times were varied from 0.5 to 4 hours. After incubation the platelet solutions were washed in buffer A two times (by centrifugation at 14,000 RPM for 20 s in a table centrifuge). Platelet counts were obtained on a coulter counter. Platelets were pelleted (45 S at 14,000 RPM) and sugars were extracted from the pellet using 80% methanol. The samples were heated for 30 minutes at 80° C. The methanol was 10 evaporated with nitrogen, and the samples were kept dry and redissolved in H2O prior to analysis. The amount of trehalose in the platelets was quantified using the anthrone reaction (Umbreit et al., Mamometric and Biochemical Techniques, 5th Edition, 1972). Samples were redissolved in 3 ml H2O and 6 ml anthrone reagents (2 g anthrone dissolved in 10M sulfuric acid). After vortex mixing, the samples were placed in a boiling water bath for 3 minutes. Then the samples were cooled on ice and the absorbance was measured at 620 nm on a Perkin Elmer spectrophotometer. The amount of platelet associated trehalose was determined using a standard curve of trehalose.
Quantification of Trehalose and LYCH Concentration. Uptake was calculated for each sample as micrograms of trehalose or LYCH per platelet. The internal trehalose concentration was calculated assuming a platelet radius of 1.2 μm and by assuming that 50% of the platelet volume is taken up by the cytosol (rest is membranes). The loading efficiency was determined from the cytosolic trehalose or LYCH concentration and the concentration in the loading buffer.

erythrocytic cells [2] = test: Hemolysis / survival of freeze-dried and rehydrated erythrocytic cells
Protocol: Cells were loaded in either 800 mM trehalose, 100 mOsm ADSOL, 6.6 mM Na-phosphate (FIG. 21, data set labeled as 800 mM treh) or in 800 mM trehalose, 100 mOsm ADSOL, 6.6 mM Na-phosphate and 1.2 mg/ml α-crystallin (FIG. 21, data set labeled as +α-crystallin 1.2 mg/ml). Cells were subsequently mixed with freeze-drying buffer with final concentration of 250 mM trehalose, 20 mOsm ADSOL, 15% HES and 2.5% HSA and were freeze-dried. After freeze-drying they were directly rehydrated (no pre-hydration) in 141 mM trehalose, 75 mOsm PBS, 11.25% HES and 1.875% HSA. […] In the third data set of FIG. 21, along with 1.2 mg/ml α-crystallin, there was 0.5 mg/ml α-crystallin added to the rehydration buffer.
Rehydration experiments were performed combining α-crystallin and Zn^2+ ions, and applying 5 min pre-hydration.
The cells were loaded in media with different trehalose concentration (400, 500, 600, 700 and 800 mM trehalose) in 100 mOsm PBS pH 7.2. The cells were freeze-dried in 300 mM trehalose in 100 mOsm PBS, 15% HES and 2.54% HSA and rehydrated in a buffer containing 188 mM trehalose, 15% HES and 2.5% HSA.
Loading buffer comprised 800 mM trehalose in a salt solution of 100 mOsm PBS. The incubation time was 16 hours at a temperature of about 35° C. After the cells were loaded, they were subsequently washed in a washing buffer comprising 300 mM in a salt solution of 100 mOsm PBS. Within 3 hours after washing the loaded cells, the wash loaded cells were freeze-dried in freeze-drying buffer comprising about 300 mM trehalose, about 100 mOsm PBS, about 2.5% by wt. HSA, and about 15% by wt. HES. After the freeze-drying procedure the cells had about 75 mM trehalose, about 25 mOsm PBS, about 0.6% by wt. HSA and about 4.0% by wt. HES left in the cells. The freeze-dried cells were then reconstituted at about 37° C. for about 10 minutes in a rehydration buffer comprising about 188 mM trehalose, about 100 mOsm PBS, about 2.5% by wt.

erythrocytic cells [3] = test: Percent hemolysis of erythrocytic cells during loading or incubation; assay type: cell-based; conditions: 800 mM trehalose, 100 mOsm ADSOL, 6.6 mM Na-phosphate; 38-41° C., 6 hours
erythrocytic cells [4] = test: Osmotic fragility index of trehalose-loaded erythrocytic cells; assay type: cell-based
Protocol: FIG. 6 graphically illustrates the fragility index of erythrocytic cells incubated overnight at respective temperatures of 4° C. and 37° C. in the presence of and as a function of increasing intracellular trehalose concentrations. The osmotic fragility index was generated by the extent of hemolysis as a function of the NaCl concentration. The erythrocytic cells that had been loaded in trehalose solutions (between 250 mM and 1000 mM) in 100 mOsm PBS were suspended in increasing concentrations of NaCl (between 50 and 600 mOsm NaCl). The percent hemolysis measured after resuspending the loaded cells in NaCl represents the fragility index.

erythrocytic cells [5] = test: 2,3-DPG level of erythrocytic cells; assay type: cell-based
Text: as §1

loading efficiency of trehalose (human platelets; 22° C. and below): below 5%
loading efficiency of trehalose (human platelets; 37° C. (FIG. 1)): 35%
loading efficiency (human platelets; time course at 37° C., incubation period of 4 hours (FIG. 2)): 61%
osmotic fragility (erythrocytic cells [4]; 1000 mM trehalose in 100 mOsm PBS at 37° C.): unstable
osmotic fragility (erythrocytic cells [4]; trehalose media between 250 mM and 800 mM in 100 mOsm PBS, 37° C. and 4° C.): stable osmotically
Structure (SMILES): OC[C@H]1O[C@H](O[C@H]2O[C@H](CO)[C@@H](O)[C@H](O)[C@H]2O)[C@H](O)[C@@H](O)[C@@H]1O [trehalose]
level of ATP (erythrocytic cells [1]; 37° C., during 16 hours of incubation): does not decrease
level of ATP (erythrocytic cells [1]; trehalose solute solution, about 37° C., about 0 to about 7 hours, increases from about 4.0): about 4.5 μmol/gHb
trehalose uptake (human platelets; after 2 hours, rapid linear uptake): 3.3×10^−10 mol/m^2s
trehalose uptake (human platelets; from 0 to 2 hours): 2.8×10^−11 mol/m^2s
biconcave shape and cell integrity of rehydrated cells (erythrocytic cells [2]; 60 mM cytoplasmic trehalose, freeze-dried and rehydrated (FIG. 14)): well preserved
cells lysed after rehydration (erythrocytic cells [2]; protocol of Example 12: loaded 800 mM trehalose/100 mOsm PBS, freeze-dried and rehydrated with trehalose, PBS, HSA, HES): less than 5%
hemolysis at 100000 µM (erythrocytic cells [2]; read-out: % hemolysis of rehydrated cells): < 10%
hemolysis at 800000 µM (erythrocytic cells [2]; read-out: hemolysis after freeze-drying and direct rehydration): 63%
hemolysis at 800000 µM (erythrocytic cells [2]; read-out: percent hemolysis after freeze-drying and direct rehydration): 68%
extent of hemolysis during loading (erythrocytic cells [3]): about 17%
level of 2,3-DPG (erythrocytic cells [5]; 37° C., first 7 hours of incubation): high
level of 2,3-DPG (erythrocytic cells [5]; 7 hours incubation at about 37° C. in a trehalose containing solution): about 8.5 μmol/gHb
